From patent publication US12390457B2, “Stable solutions of immunomodulatory imide compounds for parenteral use” (Starton Therapeutics, Inc., priority 2021, dated 2025)
Converted amounts (≈) assume the structure as drawn. Read-outs that look alike come from different tables or passages of the source.

What was measured:
[1] = cited from earlier work
[2] = LLD solubility in NMP and in aqueous povidone; assay type: physicochemical
Protocol: These materials conform to a like-dissolves-like solubility. Acetonitrile was also evaluated as a polar aprotic solvent to assess solubility. Organic volatile solvents were assessed, not to include them into formulation approach for parenteral use, but to ascertain the potential solubility parameter requirements to solubilize the API.
Further, the polymer chain of povidone has specific hydrogen bonding affinity which provides enhanced solubility and protection of the primary amine of lenalidomide, which is most susceptible to oxidation.
Dissolution is usually complete within approximately 15 minutes for volumes of approximately 20 mL. It should be appreciated, however, that larger scale production may require longer dissolution times.

[3] = Forced degradation of LLD solutions (acidic, basic, oxidative; 40° C.) by HPLC; assay type: physicochemical
Protocol: The primary analytical method for analysis of drug substance in solution is a stability-indicating method, which identifies and quantitates various primary and degradative peaks of the API by HPLC.
In the process of the analytical evaluation, forced degradation of the API in solution is performed to assess how identified chromatography peaks, primary and degradation/impurity are formed.

[4] = cited from earlier work; remark: listed apart in the source
[5] = Compatibility of lenalidomide with sodium metabisulfite antioxidant; assay type: physicochemical
[6] = polar aprotic solvent in combination with PVP, in presence of water

Saturation point of LLD in NMP ([2]; NMP): approximately 30%
Solubility in NMP ([2]; NMP): approximately 30 % by weight
solubility ([2]; NMP (n-methyl-2-pyrrolidone), organic solvent or mixture, read-out: Solubility in NMP): ~300000 µg/mL (≈ 1160 mM)
Improvement of aqueous solubility by aqueous povidone solvent ([2]; aqueous povidone): 2-3 fold
solubility ([2]; aqueous povidone, aqueous with cosolvent or surfactant or cyclodextrin, with povidone, read-out: Aqueous solubility): ≤ 800 µg/mL
solubility ([2]; aqueous, without povidone, read-out: Aqueous solubility): ~200 µg/mL (≈ 0.771 mM)
LLD degraded ([3]; 1% PEG400, basic hydrolysis, FIG. 13): 100%
LLD degraded ([3]; 1% PG, basic hydrolysis, FIG. 14): 100%
Degradation of LLD ([3]; 1% PVP K-12, basic hydrolysis, FIG. 15): 100%
Total related impurities ([3]; below pH 4.5): negligible total related impurities
Hydrolytic degradation mitigated [3, 6]: > 90%
Oxidation mitigated [3, 6]: ~100%
Loss of LLD ([3]; presence of ACN, basic hydrolysis, FIG. 8): 100%
Loss of LLD ([3]; presence of IPA, basic hydrolysis, FIG. 7): 100%
Interaction with sodium metabisulfite as an antioxidant [5]: direct interaction with lenalidomide
SMILES: Nc1cccc2c1CN(C1CCC(=O)NC1=O)C2=O (stereo not drawn) [LLD, 3-(4-amino-1-3-dihydro-1-oxo-2H-isoindol-2yl)-2,6-piperidinedione]
Solubility of the LLD in solution [1]: < 400 µg/mL
solubility ([1]; pH about 6.0 to about 7.0, dependent on storage conditions): about 0.2 mg/mL
solubility ([1]; physiologically acceptable pH about 3 to about 8): no more than 0.4 mg/mL
Total Related Substances by peak area ([4]; T0 upon preparation in standard solutions or formulations): > 1.5%
Total Related Substances ([4]; after 48 hours at ICH storage conditions): > 2.5%
Total Related Substances ([4]; after 48 hours, higher pH ranges such as pH 7.0 PBS): > 10%
